Results taken from ChEMBL document CHEMBL1201862, “PubChem BioAssay data set” (2004).
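Cells were grown in 96-well plates and exposed to each compound for 48 hours at five concentrations; endpoints were interpolated linearly between bracketing concentrations, or set to the highest concentration if not reached. GI50: concentration for 50% inhibition of growth.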 Activity calls are given as the source filed them. No stated cut-off is given here; in the data, active = GI50 up to about 1.1 µM and inactive = higher.

Assays:
Assay in all cases: NCI tumour cell line growth inhibition, 48 h
[1] = test system: SW-620
[2] = test system: DU-145
[3] = test system: K562
[4] = test system: 786-0
[5] = test system: NCI-H460
[6] = test system: HT-29
[7] = test system: LOX IMVI
[8] = test system: Malme-3M
[9] = test system: NCI-H23
[10] = test system: HL-60
[11] = test system: NCI-H226
[12] = test system: UO-31
[13] = test system: EKVX
[14] = test system: A549
[15] = test system: NCI/ADR-RES
[16] = test system: SN12C
[17] = test system: HCC 2998
[18] = test system: SK-MEL-5
[19] = test system: MCF7

`CC(=O)n1nc(-c2ccccc2)n(/N=C/c2ccc([N+](=O)[O-])cc2)c1=O` was tested. Which GI50 [1] did it give?
The GI50 was > 100 µM (inactive).

And the GI50 [2]?
The GI50 was > 100 µM (inactive).

And the GI50 [3]?
The GI50 was > 100 µM (inactive).

What about the GI50 [4] of the same compound?
The GI50 was > 100 µM (inactive).

And the GI50 [5]?
The GI50 was > 100 µM (inactive).

What about the GI50 [6] of the same compound?
The GI50 was > 100 µM (inactive).

And the GI50 [7]?
The GI50 was > 100 µM (inactive).

What about the GI50 [8] of the same compound?
Its GI50 is 90.8 µM (inactive).

And the GI50 [9]?
The GI50 was > 100 µM (inactive).

And the GI50 [10]?
The GI50 was > 100 µM (inactive).

And the GI50 [11]?
Its GI50 is > 100 µM (inactive).

And the GI50 [12]?
The GI50 was > 100 µM (inactive).

What about the GI50 [13] of the same compound?
The GI50 was 31.1 µM (inactive).

And the GI50 [14]?
Its GI50 is > 100 µM (inactive).

And the GI50 [15]?
The GI50 was > 100 µM (inactive).

What about the GI50 [16] of the same compound?
Its GI50 is > 100 µM (inactive).

And the GI50 [17]?
The GI50 was > 100 µM (inactive).

And the GI50 [18]?
Its GI50 is > 100 µM (inactive).

Which results are given for `CC(=O)Nc1ncc2c(n1)-c1ccccc1OC2c1ccccc1` (stereo unspecified)?
GI50 [19]: > 100 µM (inactive); GI50 [1]: > 100 µM (inactive); GI50 [2]: > 100 µM (inactive); GI50 [4]: 12.4 µM (inactive); GI50 [5]: > 100 µM (inactive); GI50 [6]: > 100 µM (inactive); GI50 [7]: > 100 µM (inactive); GI50 [9]: 26.1 µM (inactive); GI50 [10]: > 100 µM (inactive); GI50 [11]: 20.5 µM (inactive); GI50 [12]: > 100 µM (inactive); GI50 [13]: 61 µM (inactive); GI50 [14]: > 100 µM (inactive); GI50 [15]: 32.8 µM (inactive); GI50 [16]: 87.9 µM (inactive); GI50 [18]: > 100 µM (inactive)

Which results are given for `CC1CN=C(Nc2ccc(F)cc2F)S1` (stereo unspecified)?
GI50 [19]: > 100 µM (inactive); GI50 [1]: > 100 µM (inactive); GI50 [2]: > 100 µM (inactive); GI50 [3]: > 100 µM (inactive); GI50 [4]: > 100 µM (inactive); GI50 [5]: > 100 µM (inactive); GI50 [7]: > 100 µM (inactive); GI50 [8]: > 100 µM (inactive); GI50 [9]: > 100 µM (inactive); GI50 [10]: > 100 µM (inactive); GI50 [12]: > 100 µM (inactive); GI50 [13]: 75 µM (inactive); GI50 [14]: > 100 µM (inactive); GI50 [15]: > 100 µM (inactive); GI50 [16]: > 100 µM (inactive); GI50 [17]: > 100 µM (inactive); GI50 [18]: > 100 µM (inactive)

For `COC(=O)C(O)P(=O)(OC)OC` (stereo unspecified), which GI50 [19] is on record?
Its GI50 is > 100 µM (inactive).

What about the GI50 [1] of the same compound?
The GI50 was > 100 µM (inactive).

What about the GI50 [2] of the same compound?
Its GI50 is > 100 µM (inactive).

And the GI50 [3]?
Its GI50 is > 100 µM (inactive).

What about the GI50 [4] of the same compound?
Its GI50 is > 100 µM (inactive).

And the GI50 [6]?
Its GI50 is > 100 µM (inactive).

What about the GI50 [7] of the same compound?
Its GI50 is > 100 µM (inactive).

What about the GI50 [8] of the same compound?
The GI50 was > 100 µM (inactive).

What about the GI50 [9] of the same compound?
Its GI50 is > 100 µM (inactive).

What about the GI50 [10] of the same compound?
The GI50 was > 100 µM (inactive).

And the GI50 [11]?
The GI50 was > 100 µM (inactive).

What about the GI50 [12] of the same compound?
The GI50 was > 100 µM (inactive).

What about the GI50 [13] of the same compound?
The GI50 was > 100 µM (inactive).

And the GI50 [14]?
The GI50 was > 100 µM (inactive).

What about the GI50 [15] of the same compound?
Its GI50 is > 100 µM (inactive).

And the GI50 [16]?
Its GI50 is > 100 µM (inactive).

What about the GI50 [18] of the same compound?
The GI50 was > 100 µM (inactive).

For `NC1CNC(=O)c2cscc21` (stereo unspecified), which GI50 [19] is on record?
Its GI50 is > 100 µM (inactive).

What about the GI50 [1] of the same compound?
The GI50 was > 100 µM (inactive).

What about the GI50 [2] of the same compound?
The GI50 was > 100 µM (inactive).

And the GI50 [3]?
The GI50 was > 100 µM (inactive).

What about the GI50 [4] of the same compound?
Its GI50 is > 100 µM (inactive).

And the GI50 [5]?
The GI50 was > 100 µM (inactive).

And the GI50 [6]?
The GI50 was > 100 µM (inactive).

And the GI50 [7]?
Its GI50 is > 100 µM (inactive).

And the GI50 [8]?
Its GI50 is > 100 µM (inactive).

What about the GI50 [9] of the same compound?
Its GI50 is > 100 µM (inactive).

And the GI50 [10]?
The GI50 was > 100 µM (inactive).

What about the GI50 [12] of the same compound?
Its GI50 is > 100 µM (inactive).

What about the GI50 [13] of the same compound?
The GI50 was > 100 µM (inactive).

And the GI50 [14]?
Its GI50 is > 100 µM (inactive).

And the GI50 [15]?
The GI50 was 3.01 µM (inactive).

What about the GI50 [16] of the same compound?
The GI50 was > 100 µM (inactive).

And the GI50 [17]?
The GI50 was > 100 µM (inactive).

What about the GI50 [18] of the same compound?
Its GI50 is > 100 µM (inactive).

How did the GI50 [19] turn out when `CCN(CC)CCCC(C)Nc1ccnc(/C=C/c2ccc(Cl)cc2)c1` (stereo unspecified) was run?
Its GI50 is 2.55 µM (inactive).

What about the GI50 [1] of the same compound?
The GI50 was 1.54 µM (inactive).

And the GI50 [2]?
The GI50 was 9.08 µM (inactive).

And the GI50 [3]?
Its GI50 is 0.135 µM (active).

What about the GI50 [4] of the same compound?
The GI50 was 1.41 µM (inactive).

And the GI50 [5]?
The GI50 was 2.69 µM (inactive).

What about the GI50 [6] of the same compound?
The GI50 was 3.49 µM (inactive).

What about the GI50 [7] of the same compound?
Its GI50 is 1.26 µM (inactive).

And the GI50 [8]?
The GI50 was 1.21 µM (inactive).

And the GI50 [9]?
Its GI50 is 10.1 µM (inactive).

What about the GI50 [10] of the same compound?
The GI50 was 2.07 µM (inactive).

What about the GI50 [12] of the same compound?
Its GI50 is 1.52 µM (inactive).

And the GI50 [13]?
Its GI50 is 4.2 µM (inactive).

What about the GI50 [14] of the same compound?
The GI50 was 1.91 µM (inactive).

What about the GI50 [15] of the same compound?
The GI50 was 3.12 µM (inactive).

What about the GI50 [16] of the same compound?
The GI50 was 2.07 µM (inactive).

And the GI50 [17]?
The GI50 was 1.95 µM (inactive).

And the GI50 [18]?
The GI50 was 3.23 µM (inactive).

How did the GI50 [1] turn out when `O=C(O)c1ccc(NC(NC(=O)C(C(F)(F)F)C(F)(F)F)(C(F)(F)F)C(F)(F)F)cc1` was run?
The GI50 was > 100 µM (inactive).

What about the GI50 [3] of the same compound?
The GI50 was > 100 µM (inactive).

What about the GI50 [4] of the same compound?
Its GI50 is > 100 µM (inactive).

What about the GI50 [6] of the same compound?
The GI50 was > 100 µM (inactive).

What about the GI50 [7] of the same compound?
Its GI50 is > 100 µM (inactive).

What about the GI50 [9] of the same compound?
The GI50 was > 100 µM (inactive).

And the GI50 [10]?
The GI50 was > 100 µM (inactive).

What about the GI50 [12] of the same compound?
Its GI50 is > 100 µM (inactive).

And the GI50 [13]?
The GI50 was > 100 µM (inactive).

What about the GI50 [14] of the same compound?
The GI50 was > 100 µM (inactive).

What about the GI50 [15] of the same compound?
Its GI50 is > 100 µM (inactive).

And the GI50 [16]?
Its GI50 is > 100 µM (inactive).

What about the GI50 [17] of the same compound?
The GI50 was > 100 µM (inactive).

What about the GI50 [18] of the same compound?
The GI50 was > 100 µM (inactive).

Which GI50 [19] does the source give for `CCCCCCCCCCCCCCCCOCC(Cl)COP(=O)(O)OP(=O)(O)OCC1OC(n2cc(C)c(=O)[nH]c2=O)CC1O` (stereo unspecified) here?
Its GI50 is > 100 µM (inactive).

What about the GI50 [1] of the same compound?
The GI50 was > 100 µM (inactive).

And the GI50 [3]?
Its GI50 is > 100 µM (inactive).

And the GI50 [4]?
The GI50 was > 100 µM (inactive).

What about the GI50 [5] of the same compound?
Its GI50 is > 100 µM (inactive).

What about the GI50 [6] of the same compound?
The GI50 was > 100 µM (inactive).

And the GI50 [7]?
The GI50 was > 100 µM (inactive).

And the GI50 [8]?
The GI50 was > 100 µM (inactive).

What about the GI50 [9] of the same compound?
Its GI50 is > 100 µM (inactive).

And the GI50 [10]?
Its GI50 is > 100 µM (inactive).

And the GI50 [11]?
Its GI50 is 28.8 µM (inactive).

What about the GI50 [12] of the same compound?
The GI50 was > 100 µM (inactive).

And the GI50 [13]?
The GI50 was > 100 µM (inactive).

And the GI50 [14]?
The GI50 was > 100 µM (inactive).

And the GI50 [15]?
Its GI50 is 71.3 µM (inactive).

And the GI50 [16]?
The GI50 was 70 µM (inactive).

What about the GI50 [17] of the same compound?
The GI50 was > 100 µM (inactive).

What about the GI50 [18] of the same compound?
Its GI50 is > 100 µM (inactive).
